Results reported in patent US6380201B1, “Methods of treating or ameliorating the symptoms of common cold or allergic rhinitis with serotonin 5-HT1F agonists” (Eli Lilly and Company, priority 1997, dated 2002).
Where a name gives a salt, the structure may show the parent alone.

Assays:
[1] = target: T1, 5-HT1F receptor (Homo sapiens, UniProt P30939); conditions: cited from earlier work
T1 sequence (P30939 1-366): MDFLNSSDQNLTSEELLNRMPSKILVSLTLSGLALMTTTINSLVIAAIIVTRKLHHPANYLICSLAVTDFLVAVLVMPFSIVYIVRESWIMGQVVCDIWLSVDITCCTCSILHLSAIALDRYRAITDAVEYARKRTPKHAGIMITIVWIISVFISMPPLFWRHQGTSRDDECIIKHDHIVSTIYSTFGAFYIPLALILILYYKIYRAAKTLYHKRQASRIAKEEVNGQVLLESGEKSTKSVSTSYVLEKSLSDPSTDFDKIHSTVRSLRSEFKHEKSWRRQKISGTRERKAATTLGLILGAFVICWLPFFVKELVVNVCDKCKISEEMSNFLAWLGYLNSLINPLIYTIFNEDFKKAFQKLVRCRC

[2] = target: human 5-HT1D receptor (Homo sapiens, UniProt P28221); conditions: cited from earlier work
Sequence of human 5-HT1D receptor (P28221 whole entry): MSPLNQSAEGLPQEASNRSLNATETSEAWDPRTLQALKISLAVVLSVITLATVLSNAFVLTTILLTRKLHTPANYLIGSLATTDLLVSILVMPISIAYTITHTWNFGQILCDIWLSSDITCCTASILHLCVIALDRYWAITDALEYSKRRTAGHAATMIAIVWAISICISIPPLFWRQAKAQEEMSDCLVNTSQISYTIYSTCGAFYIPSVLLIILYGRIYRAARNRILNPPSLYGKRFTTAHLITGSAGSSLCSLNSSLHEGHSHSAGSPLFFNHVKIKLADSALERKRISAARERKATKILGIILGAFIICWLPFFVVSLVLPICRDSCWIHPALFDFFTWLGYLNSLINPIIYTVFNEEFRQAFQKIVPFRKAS

| SMILES | melting point | other results |
| --- | --- | --- |
| CN1CCC(c2c[nH]c3ccc(Sc4ccccc4)cc23)CC1 | 147 to 150 °C |  |
| CN1CCC(c2c[nH]c3ccc(NC(=O)c4ccccc4)cc23)CC1.O=C(O)C(=O)O | 130 °C |  |
| CN1CCC(c2c[nH]c3ccc(NC(=O)c4ccccc4Cl)cc23)CC1.O=C(O)/C=C/C(=O)O | 209 °C (dec.) |  |
| CN1CCC(c2c[nH]c3ccc(NC(=O)c4cccc(Cl)c4)cc23)CC1.O=C(O)/C=C/C(=O)O | 185 °C (dec.) |  |
| CN1CCC(c2c[nH]c3ccc(NC(=O)c4ccc(Cl)cc4)cc23)CC1.O=C(O)/C=C/C(=O)O | 163 °C (dec.) |  |
| COc1ccccc1C(=O)Nc1ccc2[nH]cc(C3CCN(C)CC3)c2c1.O=C(O)/C=C/C(=O)O | 90 °C (dec.) |  |
| COc1cccc(C(=O)Nc2ccc3[nH]cc(C4CCN(C)CC4)c3c2)c1.O=C(O)/C=C/C(=O)O | 152 °C (dec.) |  |
| COc1ccc(C(=O)Nc2ccc3[nH]cc(C4CCN(C)CC4)c3c2)cc1.O=C(O)/C=C/C(=O)O | 151 °C (dec.) |  |
| CN1CCC(c2c[nH]c3ccc(NC(=O)c4ccco4)cc23)CC1.O=C(O)/C=C/C(=O)O | 114 °C (dec.) |  |
| CN1CCC(c2c[nH]c3ccc(C(=O)c4ccc(F)cc4)cc23)CC1 | 89 °C |  |
| CN1CCC(c2c[nH]c3ccc(NC(=O)Cc4ccccc4)cc23)CC1.O=C(O)C(=O)O | < 90 °C |  |
| CCN1CCC(c2c[nH]c3ccc(NC(=O)c4ccco4)cc23)CC1 | 178 to 179 °C |  |
| CCN1CCC(c2c[nH]c3ccc(NC(=O)c4ccc(F)cc4)cc23)CC1.O=C(O)/C=C/C(=O)O | 152 to 155 °C |  |
| CN1CCC(c2c[nH]c3ccc(NC(=O)c4ccc(F)cc4Cl)cc23)CC1 | 159 to 162 °C |  |
| Cc1ccc(C(=O)c2ccc3[nH]cc(C4CCN(C)CC4)c3c2)cc1 | 92 °C |  |
| CN1CCC(c2c[nH]c3ccc(C(=O)c4ccc(C(F)(F)F)cc4)cc23)CC1 | 160 to 162 °C |  |
| CN1CCC(c2c[nH]c3ccc(C(=O)c4ccc(OC(F)(F)F)cc4)cc23)CC1 | 172 to 175 °C |  |
| CN1CCC(c2c[nH]c3ccc(C(=O)c4ccc(N(C)C)cc4)cc23)CC1 | 103 to 104 °C |  |
| CN1CCC(c2c[nH]c3ccc(C(=O)c4ccc5ccccc5c4)cc23)CC1 | 92 °C |  |
| CN1CCC(c2c[nH]c3ccc(C(=O)c4ccccn4)cc23)CC1 | 90 °C |  |
| CN1CCC(c2c[nH]c3ccc(NC(=O)c4cccc5ccccc45)cc23)CC1.Cl | 193 to 203 °C |  |

| SMILES | melting point | other results |
| --- | --- | --- |
| CN1CCC(c2c[nH]c3ccc(NC(=O)c4ccc5ccccc5c4)cc23)CC1 | 153 to 155.5 °C |  |
| O=C(Nc1ccc2[nH]cc(C3=CCNCC3)c2c1)c1ccc(F)cc1 | 241 °C (dec.) |  |
| O=C(Nc1ccc2[nH]cc(C3CCNCC3)c2c1)c1ccc(F)cc1 | 229 to 230 °C |  |
| COc1ccc(Sc2ccc3[nH]cc(C4CCN(C)CC4)c3c2)cc1 | 160 to 162 °C |  |
| CN1CCC(c2c[nH]c3ccc(C(=O)c4ccc(Cl)cc4)cc23)CC1 | 133 °C |  |
| CN1CC=C(c2c[nH]c3ccc(NS(C)(=O)=O)cc23)CC1 | 210 to 214 °C |  |
| CN1CC=C(c2cn(C)c3ccc(NS(C)(=O)=O)cc23)CC1 | 198 to 202 °C |  |
| Cc1[nH]c2ccc(NS(C)(=O)=O)cc2c1C1=CCN(C)CC1 | 176 to 184 °C |  |
| CCS(=O)(=O)Nc1ccc2[nH]cc(C3=CCN(C)CC3)c2c1 | 224 to 226 °C |  |
| CN1CC=C(c2c[nH]c3ccc(NS(=O)(=O)N(C)C)cc23)CC1 | 207 to 208 °C |  |
| CCN1CC=C(c2c[nH]c3ccc(NS(C)(=O)=O)cc23)CC1 | 218 to 219 °C (dec.) |  |
| CCCN1CC=C(c2c[nH]c3ccc(NS(C)(=O)=O)cc23)CC1 | 217 to 218.5 °C (dec.) |  |
| CC(C)N1CC=C(c2c[nH]c3ccc(NS(C)(=O)=O)cc23)CC1 | 211 to 213 °C (dec.) |  |
| CCCCN1CC=C(c2c[nH]c3ccc(NS(C)(=O)=O)cc23)CC1 | 202 to 204 °C |  |
| CN1CCC(c2c[nH]c3ccc(SCc4ccccc4)cc23)CC1 | 138 to 141 °C |  |
| CN1CCC(c2c[nH]c3ccc(NS(C)(=O)=O)cc23)CC1.O=C(O)C(=O)O | 119.1 °C |  |
| Cc1[nH]c2ccc(NS(C)(=O)=O)cc2c1C1CCN(C)CC1 | 124 to 128 °C |  |
| CCS(=O)(=O)Nc1ccc2[nH]cc(C3CCN(C)CC3)c2c1 | 176 to 178 °C |  |
| CN1CCC(c2c[nH]c3ccc(NS(=O)(=O)N(C)C)cc23)CC1 | 179 to 181 °C (dec.) |  |
| CCN1CCC(c2c[nH]c3ccc(NS(C)(=O)=O)cc23)CC1 | 179 to 181 °C |  |
| CCCN1CCC(c2c[nH]c3ccc(NS(C)(=O)=O)cc23)CC1 | 87 to 90 °C |  |

| SMILES | melting point | other results |
| --- | --- | --- |
| CCCCN1CCC(c2c[nH]c3ccc(NS(C)(=O)=O)cc23)CC1 | 78 °C |  |
| CN1CCC(c2c[nH]c3ccc(NS(=O)(=O)c4ccccc4)cc23)CC1 | 246 to 249 °C (dec.) |  |
| CN1CCC(c2c[nH]c3ccc(Sc4ccccn4)cc23)CC1 | 83 °C |  |
| CN1CCC(c2c[nH]c3ccc(NS(=O)(=O)c4ccc(I)cc4)cc23)CC1 | > 250 °C |  |
| CN1CCC(c2c[nH]c3ccc(N(S(=O)(=O)C(F)(F)F)S(=O)(=O)C(F)(F)F)cc23)CC1.Cl | 175 to 185 °C (dec.) |  |
| CN1CCC(c2c[nH]c3ccc(Sc4ccc(Cl)cc4)cc23)CC1 | 148 to 150 °C |  |
| CN1CCC(c2c[nH]c3ccc(NC(=O)Nc4ccccc4)cc23)CC1.Cl | 215 to 220 °C |  |
| CN1CCC(c2c[nH]c3ccc(C(=O)c4ccccc4)cc23)CC1 | 101 °C |  |
| CCCCC(=O)c1ccc2[nH]cc(C3CCN(C)CC3)c2c1.Cl | 242 to 245 °C |  |
| CN1CCC(c2c[nH]c3ccc(N4C(=O)c5ccccc5C4=O)cc23)CC1.O=C(O)C(=O)O | 224 °C |  |
| CC(=O)Nc1ccc2[nH]cc(C3=CCN(C)CC3)c2c1 | 186 to 189 °C |  |
| CCC(=O)Nc1ccc2[nH]cc(C3=CCN(C)CC3)c2c1.O=C(O)/C=C/C(=O)O | 170 to 173 °C |  |
| CN1CCC(c2c[nH]c3ccc(C(=O)Cc4ccccc4)cc23)CC1 | 69 °C |  |
| CN1CC=C(c2c[nH]c3ccc(NC(=O)c4ccccc4)cc23)CC1 | > 250 °C |  |
| CN1CC=C(c2c[nH]c3ccc(NC(=O)c4ccc(Cl)cc4)cc23)CC1 | 224 to 226 °C |  |
| COc1ccc(C(=O)Nc2ccc3[nH]cc(C4=CCN(C)CC4)c3c2)cc1 | 232 °C (dec.) |  |
| CN1CC=C(c2c[nH]c3ccc(NC(=O)c4ccc(F)cc4Cl)cc23)CC1 | 212 to 222 °C |  |
| CCN1CC=C(c2c[nH]c3ccc(NC(=O)c4ccc(F)cc4)cc23)CC1 | 127 to 135 °C (dec.) |  |
| CN1CC=C(c2c[nH]c3ccc(NC(=O)c4ccco4)cc23)CC1 | 190 °C (dec.) |  |
| CN1CC=C(c2c[nH]c3ccc(NC(=O)c4cccs4)cc23)CC1 | 229 to 233 °C (dec.) |  |
| CC(=O)Nc1ccc2[nH]cc(C3CCN(C)CC3)c2c1 | 161 to 165 °C (dec.) |  |

| SMILES | melting point | other results |
| --- | --- | --- |
| CCC(=O)Nc1ccc2[nH]cc(C3CCN(C)CC3)c2c1.O=C(O)/C=C/C(=O)O | 88 to 92 °C (dec.) |  |
| CN1CCC(c2c[nH]c3ccc(NC(=O)C(C)(C)C)cc23)CC1 | 214 to 216 °C (dec.) |  |
| CC(=O)c1ccc2[nH]c3c(c2c1)CC(N(C)C)CC3 (stereo not shown) | 181 to 182 °C |  |
| CN(C)[C@@H]1CCc2c([nH]c3ccc(Br)cc23)C1.I | 252 °C |  |
| Br.C=C(C)C(=O)Nc1ccc2[nH]c3c(c2c1)CC(N(C)C)CC3 (stereo not shown) | 236 to 238 °C |  |
| Br.CN(C)C1CCc2[nH]c3ccc(NC(=O)C4CC4)cc3c2C1 (stereo not shown) | 216 to 218 °C |  |
| Br.CN(C)C1CCc2[nH]c3ccc(NC(=O)C4CCC4)cc3c2C1 (stereo not shown) | 214 to 216 °C |  |
| Br.CN(C)C1CCc2[nH]c3ccc(NC(=O)C4CCCCC4)cc3c2C1 (stereo not shown) | 224 to 226 °C |  |
| Cl.NC1CCc2[nH]c3ccc(NC(=O)c4ccc(F)cc4)cc3c2C1 (stereo not shown) | 252 to 255 °C |  |
| Cl.O=C(Nc1ccc2[nH]c3c(c2c1)CC(NCCc1ccccc1)CC3)c1ccc(F)cc1 (stereo not shown) | 207 to 208 °C |  |
| Cl.O=C(Nc1ccc2[nH]c3c(c2c1)CC(NCCc1ccc(F)cc1)CC3)c1ccc(F)cc1 (stereo not shown) | 210 to 211 °C |  |
| NC1CCc2[nH]c3ccc(O)cc3c2C1 (stereo not shown) | 230 °C (dec.) |  |
| Cl.Oc1ccc2[nH]c3c(c2c1)CC(NCCc1ccccc1)CC3 (stereo not shown) | 178 to 180 °C |  |
| Cl.Oc1ccc2[nH]c3c(c2c1)CC(NCCc1ccc(F)cc1)CC3 (stereo not shown) | 160 °C (dec.) |  |
| Cl.Clc1ccc(CCNC2CCc3[nH]c4ccc(OCc5ccccc5)cc4c3C2)cc1 (stereo not shown) | 238 to 240 °C |  |
| Cl.Cn1cc(CCNC2CCc3[nH]c4ccc(O)cc4c3C2)cn1 (stereo not shown) | 286 °C (dec.) |  |
| CC(C)n1cc(CCNC2CCc3[nH]c4ccc(O)cc4c3C2)cn1.Cl (stereo not shown) | 251 to 253 °C |  |
| CC(C)N1CCC(c2c[nH]c3ccc(NS(C)(=O)=O)cc23)CC1 (as salt: salt) | 104 to 108 °C |  |
| CC(=O)c1ccc2[nH]cc(C3CCN(C)CC3)c2c1.Cl.O (hydrate or solvate) | 65 °C |  |
| NCCc1c[nH]c2ccc(C(N)=O)cc12 [5-carboxamidotryptamine] |  | affinity [1]: low affinity |
| CNS(=O)(=O)Cc1ccc2[nH]cc(CCN(C)C)c2c1 [Sumatriptan] |  | affinity [1]: show affinity; affinity [2]: high affinity |
